Results reported in patent US6706528B2, “Fluorescent magnesium indicators” (The United States of America as represented by the …, priority 2000, dated 2004).

What was measured:
[1] = UV absorption spectrum of the free indicator; assay type: physicochemical; details: buffer pH 7.2
Experimental: The emission and excitation fluorescence spectra of the compounds of the present invention (e.g., (1a-3a), (9a), (11a-13a), (15a), and (18a-24a)) were recorded using a 0.5 to 1.0 μM solution of the chelator buffered at pH 7.2. The solutions also contained 120 mM KCl and 20 mM NaCl to mimic the ionic strength of the intracellular medium. These solutions were titrated with stock solutions of MgCl2 containing an equimolar concentration of the 4-oxo-4H-quinolizine carboxylic acids to cancel out dilution effects during the titration. After each titration step, the emission and excitation fluorescence spectra were recorded. The apparent dissociation constants of indicators for Mg^2+ were determined from the fluorescence spectra as originally described by Grynkiewicz et al. (Grynkiewicz et al., J. Biol. Chem. 260: 3440-3450 [1985]).
In the following experiments, tetrahydrofuran (THF) was dried and distilled over sodium/benzophenone (Nalbenzophenone) prior to use. Dimethylformamide (DMF) was dried over molecular sieves (4 Å). Ethyl acetate, hexane, diethyl ether and all commercially available chemicals were used as received. After extractive work-up, the combined organic phases were dried on magnesium sulfate. Water used in the spectrophotometric and fluorescence experiments was filtered through a hydro PICOPURE® 2 filter. Thin layer chromatography was carried out on Sigma-Aldrich TLC plates (silica gel on polyester). Chromatographic purifications were done by flash chromatography using Merck Silica Gel, grade 9385, 230-400 mesh, 60 Å. Melting points were measured on a Fisher-Johns melting point apparatus and are shown uncorrected herein. ^1H-NMR spectra and ^13C-NMR spectra were recorded on a Nicolet NT 360 MHz NMR Spectrometer and a Varian UNITY plus 400 MHz NMR Spectrometer. Chemical shifts are reported in parts per million (δ), using tetramethylsilane (TMS) as the internal standard. The signals are expressed as an s (singlet), d (doublet), t (triplet), q (quartet), m (multiplet), or br (broad). High cresolution mass spectra were obtained from the Washington University Resources for Biomedical and Bio-organic Mass Spectrometry on samples which were chromatographically pure. Compounds (9a) and (21a) were analyzed by FABMS using NBA Li matrix. UV absorption spectra were recorded with a Bechman DU 650 Spectrophotometer using Fisherbrand™ semimicro quartz cells (Fisher Scientific). Fluorescence measurements were recorded with an Aminco-Bowman® Series 2 Spectrometer using quartz fluorimeter cuvets from Sigma. pH measurements were done using a Mettler Toledo MP 255 pH meter.
The buffered solutions used in fluorescence/Mg^2+ titration experiments contained 120 mM KCl, 20 mM NaCl, and 15 mM TRIS buffer, and were brought to pH=7.2 with concentrated HCl. A stock solution of 2 mg of the indicator in 5 ml buffer was prepared. To record a UV spectrum, the stock solutions were diluted 40 times (25 μl in 975 μl). For the fluorescence titration experiments, 25 μl of the stock solution was diluted 100 times with 2475 μl buffer. Emission fluorescence and excitation fluorescence spectra were recorded using the appropriate excitation wavelength derived from the UV spectrum of the free indicator. To 2475 μl of a MgCl2 solution (100 mM, 250 mM or 500 mM (2a)), 25 μl of the stock solution of the indicator was added, to cancel out dilution during the titration. To the solution of the free indicator, increasing amounts of the MgCl2/indicator solution were added. After each titration step, fluorescence emission and fluorescence excitation spectra were recorded.

[2] = fluorescent response to increasing Ca2+ concentrations; assay type: binding; details: for fluorescent response to increasing Ca^2+ concentrations: Ca^2+ up to 100 mM
[3] = fluorescence/pH titration to determine pKa; assay type: physicochemical; details: 10 mM MOPS buffer, from pH 4.29, read-out: pKa of the carboxylate group on the ring system
Experimental: However, it is not intended that the present invention be so limited nor is it necessary to understand the mechanism in order to practice the present invention. Thus, the indicators are present in the deprotonated form and available for complexation at physiological pH.
To determine the pKa of 1-bromo-8-(1,2-dicarboxyethyl)-4-oxo-4H-quinolizine-3-carboxylic acid (21a), 250 μl of the stock solution of 1-bromo-8-(1,2-dicarboxyethyl)-4-oxo-4H-quinolizine-3-carboxylic acid was added to 25 ml of 10 mM MOPS, pH 4.29. The fluorescence emission spectrum was recorded. A 0.1 M NaOH solution containing an equal concentration of 1-bromo-8-(1,2-dicarboxyethyl)-4-oxo-4H-quinolizine-3-carboxylic acid (21a), was added dropwise. After each pH increase of 0.2, the emission spectrum was recorded. At pH 6.31, no change of the fluorescence emission was observed.

| Compound | A, absorption maximum of the free indicator [1] [nm] | melting point [°C] | also measured |
| --- | --- | --- | --- |
| O=C(O)C(=Cc1cc(C(=O)O)c(=O)n2ccccc12)C(=O)O [Compound 12a, 1-(2,2-dicarboxyvinyl)-4-oxo-4H-quinolizine-3-carboxylic acid] | 400 | – | – |
| O=C(O)c1ccc2cc(Cl)ccn2c1=O [Compound 2a, 4-oxo-8-chloro-4H-quinolizine-3-carboxylic acid] | 391 | > 250 | – |
| O=C(O)CC(C(=O)O)c1ccn2c(=O)c(C(=O)O)cc(Br)c2c1 (stereo not drawn) [Compound 21a, 1-bromo-8-(1,2-dicarboxyethyl)-4-oxo-4H-quinolizine-3-carboxylic acid] | 407 | > 250 | fluorescent response to increasing Ca^2+ concentrations [2]: no fluorescent response; pKa [3]: 5.6 |
| O=C(O)c1ccc2ccc3ccccc3n2c1=O [Compound 3a, [6,7]benzo-4-oxo-4H-quinolizine-3-carboxylic acid] | 410 | – | – |
| O=C(O)c1ccc2cc(-c3cccc4ccccc34)ccn2c1=O [Compound 23a, 8-(naphth-1-yl)-4-oxo-4H-quinolizine-3-carboxylic acid] | 386 | 245 to 247 | – |
| COc1ccc(-c2ccn3c(=O)c(C(=O)O)ccc3c2)cc1 [Compound 22a, 8-(4-methoxyphenyl)-4-oxo-4H-quinolizine-3-carboxylic acid] | 406 | > 250 | – |
| O=C(O)c1cc(Br)c2ccccn2c1=O [Compound 9a, 1-bromo-4-oxo-4H-quinolizine-3-carboxylic acid] | 403 | > 250 | fluorescent response to increasing Ca^2+ concentrations [2]: no fluorescent response |
| O=C(O)Cc1ccn2c(=O)c(C(=O)O)ccc2c1 [Compound 19a, 8-(carboxymethyl)-4-oxo-4H-quinolizine-3-carboxylic acid] | 380 | – | – |
| 8-[3-(N,N-di(carboxymethyl)phenoxy]-4-oxo-4H-quinolizine-3-carboxylic acid [Compound 18a] | 370 | – | – |
| Nc1ccn2c(=O)c(C(=O)O)ccc2c1 [Compound 15a, 8-amino-4-oxo-4H-quinolizine-3-carboxylic acid] | 385 | – | – |
| O=C(O)c1ccc2cc(-c3cc4ccccc4o3)ccn2c1=O [Compound 24a, 8-benzo[b]furyl-4-oxo-4H-quinolizine-3-carboxylic acid] | 440 | – | – |
| O=C(O)c1ccc2ccccn2c1=O [Compound 1a, 4-oxo-4H-quinolizine-3-carboxylic acid] | 385 | – | effect of Ca^2+ on the fluorescence emission ([2]; Ca^2+ levels in the nanomolar to submicromolar range): do not affect the fluorescence emission |
| 1-[N,N-di(carboxymethyl)]-4-oxo-4H-quinolizine-3-carboxylic acid [Compound 11a] | 410 | – | – |
| O=C(O)c1cc(CC(C(=O)O)C(=O)O)c2ccccn2c1=O [Compound 13a, 1-(2,2-dicarboxyethyl)-4-oxo-4H-quinolizine-3-carboxylic acid] | 395 | – | – |
| O=C(O)CC(C(=O)O)c1ccn2c(=O)c(C(=O)O)ccc2c1 (stereo not drawn) [Compound 20a, 8-(1,2-dicarboxyethyl)-4-oxo-4H-quinolizine-3-carboxylic acid] | 390 | – | – |
